In brackets after ≈: the same amount, converted by molar mass. Activity calls are given as the source filed them. The rule behind the calls is not given here.
Columns and labels:
Plasmodium berghei [1] = test: Antimalarial activity against Plasmodium berghei infected in mouse assessed as disease cure from parasite infection at 640 mg/kg, sc administered 72 hrs after infection; type: functional, organism-based; design: dose 640 mg/kg
Gallus gallus = test: Toxicity in sporozoite-induced Plasmodium gallinaceum infected white leghorn chicken assessed as mortality at 480 mg/kg, sc administered 72 hrs after infection measured up to 6 days; type: organism-based; design: dose 480 mg/kg, route subcutaneous; conditions: in vivo
Plasmodium gallinaceum [2] = test: Antimalarial activity against trophozoite-induced Plasmodium gallinaceum infected in white leghorn chicken assessed as increase in mean survival days of host at 40 mg/kg, sc administered 72 hrs after infection relative to control; type: functional; conditions: route subcutaneous
Escherichia coli = test: Antibacterial activity against Escherichia coli Vogel by gradient plate test; type: functional
Plasmodium berghei [3] = test: Antimalarial activity against trophozoite-induced Plasmodium berghei infected in mouse assessed as daily dose required to suppression of 90% parasite infection administered with diet for 6 days; type: functional
Plasmodium gallinaceum [4] = test: Antimalarial activity against trophozoite-induced Plasmodium gallinaceum infected in white leghorn chicken assessed as increase in mean survival days of host at 160 mg/kg, sc administered 72 hrs after infection relative to control; type: functional; conditions: route subcutaneous
Shigella sonnei = test: Antibacterial activity against Shigella sonnei C-10 by gradient plate test; type: functional
Plasmodium gallinaceum [5] = test: Antimalarial activity against trophozoite-induced Plasmodium gallinaceum infected in white leghorn chicken assessed as increase in mean survival days of host at 20 mg/kg, sc administered 72 hrs after infection relative to control; type: functional; conditions: route subcutaneous
Plasmodium gallinaceum [6] = test: Antimalarial activity against trophozoite-induced Plasmodium gallinaceum infected in white leghorn chicken assessed as increase in mean survival days of host at 10 mg/kg, sc administered 72 hrs after infection relative to control; type: functional; conditions: route subcutaneous
Plasmodium gallinaceum [7] = test: Antimalarial activity against sporozoite-induced Plasmodium gallinaceum infected in white leghorn chicken assessed as disease cure from parasite infection at 120 mg/kg, sc administered 72 hrs after infection; type: functional, organism-based; design: dose 120 mg/kg
Pseudomonas aeruginosa = test: Antibacterial activity against Pseudomonas aeruginosa 28 by gradient plate test; type: functional
Plasmodium berghei [8] = test: Antimalarial activity against Plasmodium berghei infected in mouse assessed as increase in mean survival days of host at 80 mg/kg, sc administered 72 hrs after infection relative to control; type: functional; conditions: route subcutaneous
Plasmodium berghei [9] = test: Antimalarial activity against Plasmodium berghei infected in mouse assessed as disease cure from parasite infection at 160 mg/kg, sc administered 72 hrs after infection; type: functional, organism-based; design: dose 160 mg/kg
Plasmodium berghei [10] = test: Antimalarial activity against Plasmodium berghei infected in mouse assessed as disease cure from parasite infection at 320 mg/kg, sc administered 72 hrs after infection; type: functional, organism-based; design: dose 320 mg/kg
Plasmodium berghei [11] = test: Antimalarial activity against Plasmodium berghei infected in mouse assessed as increase in mean survival days of host at 20 mg/kg, sc administered 72 hrs after infection relative to control; type: functional; conditions: route subcutaneous
Plasmodium gallinaceum [12] = test: Antimalarial activity against trophozoite-induced Plasmodium gallinaceum infected in white leghorn chicken assessed as increase in mean survival days of host at 80 mg/kg, sc administered 72 hrs after infection relative to control; type: functional; conditions: route subcutaneous
Plasmodium gallinaceum [13] = test: Antimalarial activity against sporozoite-induced Plasmodium gallinaceum infected in white leghorn chicken assessed as disease cure from parasite infection at 60 mg/kg, sc administered 72 hrs after infection; type: functional, organism-based; design: dose 60 mg/kg
Plasmodium berghei [14] = test: Antimalarial activity against Plasmodium berghei infected in mouse assessed as increase in mean survival days of host at 10 mg/kg, sc administered 72 hrs after infection relative to control; type: functional; conditions: route subcutaneous
Staphylococcus aureus [15] = test: Antibacterial activity against drug-resistant Staphylococcus aureus S18713 by gradient plate test; type: functional
Enterococcus faecalis = test: Antibacterial activity against Streptococcus faecalis MGH-2 by gradient plate test; type: functional
Plasmodium gallinaceum [16] = test: Antimalarial activity against trophozoite-induced Plasmodium gallinaceum infected in white leghorn chicken assessed as disease cure from parasite infection at 320 mg/kg, sc administered 72 hrs after infection; type: functional, organism-based; design: dose 320 mg/kg
Plasmodium berghei [17] = test: Antimalarial activity against Plasmodium berghei infected in mouse assessed as increase in mean survival days of host at 40 mg/kg, sc administered 72 hrs after infection relative to control; type: functional; conditions: route subcutaneous
Plasmodium gallinaceum [18] = test: Antimalarial activity against sporozoite-induced Plasmodium gallinaceum infected in white leghorn chicken assessed as disease cure from parasite infection at 480 mg/kg, sc administered 72 hrs after infection; type: functional, organism-based; design: dose 480 mg/kg
Plasmodium berghei [19] = test: Ratio of quinine hydrochloride SD90 to compound SD90 for trophozoite-induced Plasmodium berghei infected in mouse assessed as daily dose required to suppression of 90% parasite infection administered with diet for 6 days; type: functional
Plasmodium berghei [20] = test: Antimalarial activity against Plasmodium berghei infected in mouse assessed as disease cure from parasite infection at 80 mg/kg, sc administered 72 hrs after infection; type: functional, organism-based; design: dose 80 mg/kg
Plasmodium gallinaceum [21] = test: Antimalarial activity against sporozoite-induced Plasmodium gallinaceum infected in white leghorn chicken assessed as disease cure from parasite infection at 240 mg/kg, sc administered 72 hrs after infection; type: functional, organism-based; design: dose 240 mg/kg
Plasmodium gallinaceum [22] = test: Antimalarial activity against trophozoite-induced Plasmodium gallinaceum infected in white leghorn chicken assessed as increase in mean survival days of host at 320 mg/kg, sc administered 72 hrs after infection relative to control; type: functional; conditions: route subcutaneous
Staphylococcus aureus [23] = test: Antibacterial activity against Staphylococcus aureus UC-96 by gradient plate test; type: functional
[24] = system: Mycobacterium tuberculosis; test: Antibacterial activity against Mycobacterium tuberculosis H37Ra by gradient plate test; type: functional
Plasmodium gallinaceum [25] = test: Antimalarial activity against trophozoite-induced Plasmodium gallinaceum infected in white leghorn chicken assessed as increase in mean survival days of host at 0.63 mg/kg, sc administered 72 hrs after infection relative to control; type: functional; conditions: route subcutaneous
Plasmodium berghei [26] = test: Antimalarial activity against Plasmodium berghei infected in mouse assessed as increase in mean survival days of host at 1.25 mg/kg, sc administered 72 hrs after infection relative to control; type: functional; conditions: route subcutaneous
Plasmodium gallinaceum [27] = test: Antimalarial activity against trophozoite-induced Plasmodium gallinaceum infected in white leghorn chicken assessed as increase in mean survival days of host at 1.25 mg/kg, sc administered 72 hrs after infection relative to control; type: functional; conditions: route subcutaneous
Plasmodium berghei [28] = test: Antimalarial activity against Plasmodium berghei infected in mouse assessed as increase in mean survival days of host at 5 mg/kg, sc administered 72 hrs after infection relative to control; type: functional; conditions: route subcutaneous
Plasmodium gallinaceum [29] = test: Antimalarial activity against trophozoite-induced Plasmodium gallinaceum infected in white leghorn chicken assessed as increase in mean survival days of host at 5 mg/kg, sc administered 72 hrs after infection relative to control; type: functional; conditions: route subcutaneous
Plasmodium gallinaceum [30] = test: Antimalarial activity against trophozoite-induced Plasmodium gallinaceum infected in white leghorn chicken assessed as increase in mean survival days of host at 2.5 mg/kg, sc administered 72 hrs after infection relative to control; type: functional; conditions: route subcutaneous
Plasmodium berghei [31] = test: Antimalarial activity against Plasmodium berghei infected in mouse assessed as increase in mean survival days of host at 2.5 mg/kg, sc administered 72 hrs after infection relative to control; type: functional; conditions: route subcutaneous
Plasmodium gallinaceum [32] = test: Antimalarial activity against sporozoite-induced Plasmodium gallinaceum infected in white leghorn chicken assessed as disease cure from parasite infection at 15 mg/kg, sc administered 72 hrs after infection; type: functional, organism-based; design: dose 15 mg/kg
Plasmodium berghei [33] = test: Antimalarial activity against Plasmodium berghei infected in mouse assessed as increase in mean survival days of host at 160 mg/kg, sc administered 72 hrs after infection relative to control; type: functional; conditions: route subcutaneous
Plasmodium gallinaceum [34] = test: Antimalarial activity against sporozoite-induced Plasmodium gallinaceum infected in white leghorn chicken assessed as increase in mean survival days of host at 15 mg/kg, sc administered 72 hrs after infection relative to control; type: functional; conditions: route subcutaneous
Plasmodium gallinaceum [35] = test: Antimalarial activity against sporozoite-induced Plasmodium gallinaceum infected in white leghorn chicken assessed as disease cure from parasite infection at 30 mg/kg, sc administered 72 hrs after infection; type: functional, organism-based; design: dose 30 mg/kg

SMILES	Activity (Plasmodium berghei [1])	MIC (Escherichia coli) [µg/mL]	MIC (Shigella sonnei) [µg/mL]	MST (Plasmodium gallinaceum [5]) [days]	MST (Plasmodium gallinaceum [6]) [days]	Activity (Plasmodium gallinaceum [7])	MIC (Pseudomonas aeruginosa) [µg/mL]	MST (Plasmodium berghei [8]) [days]	Activity (Plasmodium berghei [9])	Activity (Plasmodium berghei [10])	MST (Plasmodium berghei [11]) [days]	Activity (Plasmodium gallinaceum [13])	MST (Plasmodium berghei [14]) [days]	MIC (Staphylococcus aureus [15]) [µg/mL]	MIC (Enterococcus faecalis) [µg/mL]	MST (Plasmodium berghei [17]) [days]	Activity (Plasmodium gallinaceum [18])	Activity (Plasmodium berghei [20])	Activity (Plasmodium gallinaceum [21])	MIC (Staphylococcus aureus [23]) [µg/mL]	further results
Cc1ccc(Sc2ccc3nc(N)nc(N)c3c2)cc1	Active	< 0.25	0.5 (≈ 1.77 µM)	7.6	4.6	Active	> 25	9.7	Active	Active	3.9	Active	2.5	< 0.25	< 0.25	7.1	Active	Active	Active	< 0.25	Activity (Gallus gallus): Toxic; MST (Plasmodium gallinaceum [2]): 10.4 days; SD90 (Plasmodium berghei [3]): 7.2 mg/kg/day; MST (Plasmodium gallinaceum [4]): 22.2 days; MST (Plasmodium gallinaceum [12]): 15.2 days; Activity (Plasmodium gallinaceum [16]): Active; Ratio (Plasmodium berghei [19]): 10; MST (Plasmodium gallinaceum [22]): 20 days
Nc1nc(N)c2cc(Sc3cccc4ccccc34)ccc2n1	Active	15 (≈ 47.1 µM)	20 (≈ 62.8 µM)	17.4	12.4		> 25	18.4	Active	Active	10.7		7.9	5 (≈ 15.7 µM)	10 (≈ 31.4 µM)	14.5		Active		2.5 (≈ 7.85 µM)	MIC [24]: > 25 µg/mL; MST (Plasmodium gallinaceum [25]): 2.2 days; MST (Plasmodium berghei [26]): 0.5 days; MST (Plasmodium gallinaceum [27]): 7.2 days; MST (Plasmodium berghei [28]): 1.9 days; MST (Plasmodium gallinaceum [29]): 11.8 days; MST (Plasmodium gallinaceum [30]): 9 days; MST (Plasmodium berghei [31]): 1.1 days
Nc1nc(N)c2cc(Sc3ccc(O)cc3)ccc2n1	Active	2.5 (≈ 8.79 µM)	15 (≈ 52.8 µM)			Active	20 (≈ 70.3 µM)	10.9	Active	Active	6.3	Active	2.9	< 0.25	< 0.25	11.9	Active	Active	Active	< 0.25	MIC [24]: > 25 µg/mL; Activity (Plasmodium gallinaceum [32]): Active; MST (Plasmodium berghei [33]): 13.6 days; MST (Plasmodium gallinaceum [34]): 4.7 days; Activity (Plasmodium gallinaceum [35]): Active
